# Experimental data taken from PubChem BioAssay AID1963828 (Molecular Pharmacology Branch, DTP, NCI, 2024).
# Tested on: 991263-137-R1-J2-PDC complex spheroid viability
# Test: Anticancer human tumor 991263-137-R1-J2-PDC patient-derived colon adenocarcinoma cell line growth inhibition [POLQ]
# Settings: for IC50: curve of first compound; for viability, T/C: stronger effect = lower value
# Description: Multicellular complex tumor spheroid response to Polymerase (POL) inhibitors (novobiocin, ART-558, RP6685) in combination with a variety of drugs and investigational agents in selected tumor cell lines
# The POL inhibitors (novobiocin, ART-558, and RP6685) were evaluated both individually and in combination with standard of care and investigational anticancer small molecules within a complex spheroid model of solid tumors. . Complex spheroids include a stromal component modeled by human endothelial cells (HUVEC) and fibroblasts modeled by human mesenchymal stem cells (MSCs). The concentration ranges selected for each drug and investigational agent were based upon clinically achievable concentrations if the clinical Cmax of the agent was known.
# Compounds. The drugs and investigational agents: novobiocin (NSC847541), ART-558 (NSC835418), RP-6685 (NSC848927), peposertib (NSC802822), ceralasertib (NSC780249), elimusertib (NSC800525), camonsertib (NSC841442), AZD-1390 (NSC803789), olaparib (NSC753686), talazoparib (NSC767125), rucaparib (NSC756644), sotorasib (NSC818433), MRTX-1133 (NSC836407), SN-38 (NSC673596), topotecan (NSC609699), epotoside (NSC141540), doxorubicin (NSC123127), gemcitabine (NSC613327), 5-fluorouracil (NSC19893), paclitaxel (NSC125973), vemurafenib (NSC761431), MSA-2 (NSC828583), SN-011 (NSC837082), adavosertib (NSC754352), prexasertib (NSC758257), carboplatin (NSC241240) and oxaliplatin (NSC266046), were obtained from the National Cancer Institute (NCI) Developmental Therapeutics Program Chemical Repository (21). The FDA-approved anticancer drug set is available from the Developmental Therapeutics Program at https://dtp.cancer.gov/organization/dscb/obtaining/. […] The stock solutions were prepared in dimethyl sulfoxide (DMSO, Sigma-Aldrich, St. Louis, MO, cat. D2650), except for the platinum compounds which were prepared in saline (Quality Biological, Gaithersburg, MD, cat. 114-055-101), at 800-fold the tested concentration and stored at -70 degrees C prior to their use. All drugs and investigational agents were tested over a range starting from a high concentration at or near the clinical Cmax and decreasing in half-log increments. If the clinical Cmax for an agent had not been determined, the highest concentration tested was 10 microM, except for SN-38, which was tested at a high concentration of 1 microM.
# Cell Culture. All cells were maintained in an incubator at 37 degrees C and 5% CO2 with 95% humidity. The PDC lines were cultured according to standard operating procedures established by the NCI PDMR (https://pdmr.cancer.gov). Table 3 of the manuscript, lists the cell lines along with the number of the three cell types plated to form the mct-spheroids and media for tumor cell growth. After thawing, all PDC lines, except 997537-175-T-J1-PDC and 415267-285-R-J2-PDC, were cultured in Matrigel-coated flasks prepared with a working solution of 1X Ham's F-12 nutrient mix, without supplementation (Thermo Fisher Scientific, cat. 11765054), 100 U/mL penicillin-streptomycin (Thermo Fisher Scientific, cat. 15140122), and 2.5% Matrigel (Corning Inc., Corning, NY, cat. 354248) for the first three passages. The two PDC lines 997537-175-T-J1-PDC and 415267-285-R-J2-PDC were cultured on uncoated flasks. The 857933-349-R-J2-PDC line was cultured in 6C/Colon 1B media containing advanced DMEM/F-12 (Thermo Fisher Scientific, cat. 12634028), 10 mM HEPES (Thermo Fisher Scientific, cat. 15630080), 1X GlutaMAX supplement (Thermo Fisher Scientific, cat. 35050061), 0.1 mg/mL primocin (InvivoGen, San Diego, CA, cat. ant-pm-2), 10% defined fetal bovine serum, heat inactivated (HyClone Laboratories Inc., Logan, UT, cat. SH30070.03HI), 50% L-WRN conditioned media (ATCC, cat. CRL-3276), 1.25 mM N-Acetyl-L-cysteine (Sigma-Aldrich, cat. A9165), 10 mM nicotinamide (Sigma-Aldrich, cat. N0636), 1X B-27 supplement (Thermo Fisher Scientific, cat. 17504044), 1X N-2 supplement (Thermo Fisher Scientific, cat. […]
# [1] = second compound 0.0316 µM, first compound 0.0316 µM
# [2] = second compound 0.0316 µM, first compound 0.1 µM
# [3] = second compound 0.0316 µM, first compound 0.316 µM
# [4] = second compound 0.0316 µM, first compound 1 µM
# [5] = second compound 0.0316 µM, first compound 3.16 µM
# [6] = second compound 0.0316 µM, first compound 10 µM
# [7] = second compound 0.1 µM, first compound 0.0316 µM
# [8] = second compound 0.1 µM, first compound 0.1 µM
# [9] = second compound 0.1 µM, first compound 0.316 µM
# [10] = second compound 0.1 µM, first compound 1 µM
# [11] = second compound 0.1 µM, first compound 3.16 µM
# [12] = second compound 0.1 µM, first compound 10 µM
# [13] = second compound 0.316 µM, first compound 0.0316 µM
# [14] = second compound 0.316 µM, first compound 0.1 µM
# [15] = second compound 0.316 µM, first compound 0.316 µM
# [16] = second compound 0.316 µM, first compound 1 µM
# [17] = second compound 0.316 µM, first compound 3.16 µM
# [18] = second compound 0.316 µM, first compound 10 µM
# [19] = second compound 1 µM, first compound 0.0316 µM
# [20] = second compound 1 µM, first compound 0.1 µM
# [21] = second compound 1 µM, first compound 0.316 µM
# [22] = second compound 1 µM, first compound 1 µM
# [23] = second compound 1 µM, first compound 3.16 µM
# [24] = second compound 1 µM, first compound 10 µM
# [25] = second compound 3.16 µM, first compound 0.0316 µM
# [26] = second compound 3.16 µM, first compound 0.1 µM
# [27] = second compound 3.16 µM, first compound 0.316 µM
# [28] = second compound 3.16 µM, first compound 1 µM
# [29] = second compound 3.16 µM, first compound 3.16 µM
# [30] = second compound 3.16 µM, first compound 10 µM
# [31] = second compound 10 µM, first compound 0.0316 µM
# [32] = second compound 10 µM, first compound 0.1 µM
# [33] = second compound 10 µM, first compound 0.316 µM
# [34] = second compound 10 µM, first compound 1 µM
# [35] = second compound 10 µM, first compound 3.16 µM
# [36] = second compound 10 µM, first compound 10 µM
# 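Also: spheroids exposed to compounds for 7 days before readout.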
# 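For viability, T/C in this document: 100% = DMSO vehicle control viability.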
structure (smiles),measurement,setting,value
CC1COCCN1c1cc(C2(S(C)(=N)=O)CC2)nc(-c2ccnc3[nH]ccc23)n1 (centres undefined) + Cc1cccc(N(C)C(=O)C2C(O)CCN2c2nc(C)cc(C(F)(F)F)c2C#N)c1,IC50,second compound 0.0316 µM,> 10000 nM
same,IC50,second compound 0.1 µM,> 10000 nM
same,IC50,second compound 0.316 µM,> 10000 nM
same,IC50,second compound 1 µM,> 10000 nM
same,IC50,second compound 3.16 µM,> 10000 nM
same,IC50,second compound 10 µM,> 10000 nM
same,"viability, T/C",[1],96.9%
same,"viability, T/C",[2],107%
same,"viability, T/C",[3],122%
same,"viability, T/C",[4],104%
same,"viability, T/C",[5],111%
same,"viability, T/C",[6],90.9%
same,"viability, T/C",[7],101%
same,"viability, T/C",[8],103%
same,"viability, T/C",[9],95%
same,"viability, T/C",[10],96.2%
same,"viability, T/C",[11],117%
same,"viability, T/C",[12],106%
same,"viability, T/C",[13],95.7%
same,"viability, T/C",[14],108%
same,"viability, T/C",[15],73.7%
same,"viability, T/C",[16],112%
same,"viability, T/C",[17],84%
same,"viability, T/C",[18],70%
same,"viability, T/C",[19],98.7%
same,"viability, T/C",[20],102%
same,"viability, T/C",[21],94.3%
same,"viability, T/C",[22],75.4%
same,"viability, T/C",[23],96.7%
same,"viability, T/C",[24],92.5%
same,"viability, T/C",[25],88.1%
same,"viability, T/C",[26],95.2%
same,"viability, T/C",[27],99.2%
same,"viability, T/C",[28],106%
same,"viability, T/C",[29],101%
same,"viability, T/C",[30],101%
same,"viability, T/C",[31],93.2%
same,"viability, T/C",[32],97%
same,"viability, T/C",[33],98.8%
same,"viability, T/C",[34],98.5%
same,"viability, T/C",[35],98.8%
same,"viability, T/C",[36],77%
Nc1ccn(C2OC(CO)C(O)C2(F)F)c(=O)n1 (centres undefined) + Cc1cccc(N(C)C(=O)C2C(O)CCN2c2nc(C)cc(C(F)(F)F)c2C#N)c1,IC50,second compound 0.0316 µM,873 nM
same,IC50,second compound 0.1 µM,1310 nM
same,IC50,second compound 0.316 µM,1150 nM
same,IC50,second compound 1 µM,1910 nM
same,IC50,second compound 3.16 µM,3040 nM
same,IC50,second compound 10 µM,2030 nM
same,"viability, T/C",[1],85.6%
same,"viability, T/C",[2],74.6%
same,"viability, T/C",[3],57.2%
same,"viability, T/C",[4],48%
same,"viability, T/C",[5],52.4%
same,"viability, T/C",[6],42.4%
same,"viability, T/C",[7],99.4%
same,"viability, T/C",[8],66.4%
same,"viability, T/C",[9],60.6%
same,"viability, T/C",[10],62.4%
same,"viability, T/C",[11],40.3%
same,"viability, T/C",[12],41.5%
same,"viability, T/C",[13],82.6%
same,"viability, T/C",[14],70.5%
same,"viability, T/C",[15],54.9%
same,"viability, T/C",[16],52.6%
same,"viability, T/C",[17],48.4%
same,"viability, T/C",[18],38.5%
same,"viability, T/C",[19],75.6%
same,"viability, T/C",[20],63.8%
same,"viability, T/C",[21],53.1%
same,"viability, T/C",[22],50%
same,"viability, T/C",[23],53.6%
same,"viability, T/C",[24],46%
same,"viability, T/C",[25],69.2%
same,"viability, T/C",[26],64.2%
same,"viability, T/C",[27],54.7%
same,"viability, T/C",[28],54%
same,"viability, T/C",[29],53.2%
same,"viability, T/C",[30],45%
same,"viability, T/C",[31],80.2%
same,"viability, T/C",[32],70.3%
same,"viability, T/C",[33],63.5%
same,"viability, T/C",[34],49.6%
same,"viability, T/C",[35],51.8%
same,"viability, T/C",[36],41.5%
